The subject of experiment [1] is MCF-7 (human breast cancer). Briefly: In vitro cytotoxic activity MTT assay, MCF-7. The experiment is classed as cell-based. The settings on record: for IC50: MCF-7 breast cancer cells, MTT, 24 h incubation, read-out: Anti-proliferative activity: IC50 (μM) MCF-7. The procedure:
(§1) The cytotoxicity activity of the compounds of the current subject matter was assessed against three cancer cell lines such as A-549 (lung cancer), MCF-7 (breast cancer) and HL-60 (leukemia) cancer cells.
(§2) Compounds 1-15 were screened for their in vitro cytotoxic behavior utilizing a 3-(4,5-dimethyl-thiazol-2-yl)-2,5-diphenyltetrazolium bromide (MTT) assay against selected cancer human cell lines consisting of MCF-7 (human breast cancer), A-549 (lung cancer) and HL-60 (leukemia) (T. Mosmann, J. Immunol. Meth., 1983, 65, 55-63). The cells were cultured at 37° C. in RMPI1640 medium supplemented with 10% fetal bovine serum, 50 IU/mL penicillin, and 50 μg/mL streptomycin in a 5% CO2 incubator. All cells were sub-cultured 3 times/week by trypsinisation. Viable cells were seeded and allowed to adhere for 12 h before a test drug was added in 96-well plates at an initial density of 1.0×10^5 cells/mL. Tumour cell lines were separately exposed to various concentrations of the tested compounds followed by incubation at a temperature of 37° C. during 24 h inside a medium of fresh RMPI 1640. Cells were subsequently incubated at 37° C. using MTT at 0.5 mg/mL during 4 h. After removal of supernatant, formazan crystals were dissolved in isopropanol and the optical density was measured at 570 nm. Etopside and Cisplatin were used as a positive control.

For experiment [2], the system named is HL-60 (leukemia). The experiment is described as follows: In vitro cytotoxic activity MTT assay, HL-60. The settings on record: for IC50: HL-60 leukemia cells, MTT, 24 h incubation, read-out: Anti-proliferative activity: IC50 (μM) HL-60. Format: cell-based, human. The procedure:
as §1, §2

Experiment [3] concerns A-549 (lung cancer). The experiment is described as follows: In vitro cytotoxic activity MTT assay, A-549. The note with it: for IC50: A-549 lung cancer cells, MTT, 24 h incubation, read-out: Anti-proliferative activity: IC50 (μM) A-549. The experiment is classed as cell-based, human. The procedure:
as §1, §2
For orientation: Tetrazolium assays rely on reduction of a dye to a coloured formazan, in cell work by metabolically active cells.

SMILES strings stand for the structures. pIC50: −log10 of the molar value. Like-named read-outs stand apart in the source and are kept apart here.

In general, IC50 refers to the concentration needed to halve the response being measured. In the case of `O=C1OCC2=C1C(c1ccc(F)cc1)n1c(nc3ccccc31)N2` (stereo not drawn) [Example 13, 11-(4-fluorophenyl)-4,11-dihydro-1H,3H-benzo[4,5]imidazo[1,2-a]furo[3,4-d]pyrimidin-1-one], the IC50 in experiment [1] (Homo sapiens, MCF7) came to 0.045 µM; in experiment [2] (Homo sapiens) it was 0.061 µM; in experiment [3] (Homo sapiens, A549), 0.071 µM. In addition, the pIC50 was 7.35 in experiment [1] (Homo sapiens, MCF7, MCF-7 cancer cells, read-out: IC50 (concentration of cytotoxic agent which inhibits proliferation of the treated cells by 50%) against MCF-7); 7.21 in experiment [2] (Homo sapiens, HL-60 cancer cells, read-out: IC50 (concentration of cytotoxic agent which inhibits proliferation of the treated cells by 50%) against HL-60); 7.15 in experiment [3] (Homo sapiens, A549, A-549 cancer cells, read-out: IC50 (concentration of cytotoxic agent which inhibits proliferation of the treated cells by 50%) against A-549).

On to `CN(C)c1ccc(C2C3=C(COC3=O)Nc3nc4ccccc4n32)cc1` (stereo not drawn) [Example 8, 11-(4-(dimethylamino)phenyl)-4,11-dihydro-1H,3H-benzo[4,5]imidazo[1,2-a]furo[3,4-d]pyrimidin-1-one], for which the IC50 is 0.087 µM in experiment [1] (Homo sapiens, MCF7); 0.129 µM in experiment [2] (Homo sapiens); 0.092 µM in experiment [3] (Homo sapiens, A549).

Turning to `COc1cc(C2C3=C(COC3=O)Nc3nc4ccccc4n32)cc(OC)c1OC` (stereo not drawn) [Example 3, 11-(3,4,5-trimethoxyphenyl)-4,11-dihydro-1H,3H-benzo[4,5]imidazo[1,2-a]furo[3,4-d]pyrimidin-1-one], the IC50 in experiment [1] (Homo sapiens, MCF7) is 0.115 µM; in experiment [2] (Homo sapiens), 0.128 µM; in experiment [3] (Homo sapiens, A549) it was 0.081 µM.

`N.N.[Cl][Pt][Cl]` [Cisplatin, reference compound]: the figures for the IC50 in experiment [1], in experiment [2] and in experiment [3] were 15.9 µM, 1.16 µM and 9.25 µM, respectively.

As to `O=C1OCC2=C1C(c1ccc(Cl)cc1)n1c(nc3ccccc31)N2` (stereo not drawn) [Example 14, 11-(4-chlorophenyl)-4,11-dihydro-1H,3H-benzo[4,5]imidazo[1,2-a]furo[3,4-d]pyrimidin-1-one], the IC50 is 0.074 µM in experiment [1] (Homo sapiens, MCF7); 0.069 µM in experiment [2] (Homo sapiens); 0.058 µM in experiment [3] (Homo sapiens, A549).

As for `O=C1OCC2=C1C(c1ccc(O)c(O)c1)n1c(nc3ccccc31)N2` (stereo not drawn) [Example 5, 11-(3,4-dihydroxyphenyl)-4,11-dihydro-1H,3H-benzo[4,5]imidazo[1,2-a]furo[3,4-d]pyrimidin-1-one], the IC50 in experiment [1] (Homo sapiens, MCF7) worked out at 0.154 µM; in experiment [2] (Homo sapiens) it was 0.178 µM; in experiment [3] (Homo sapiens, A549) it was 0.151 µM.

As to `COc1ccc(C2C3=C(COC3=O)Nc3nc4ccccc4n32)cc1OC` (stereo not drawn) [Example 2, 11-(3,4-dimethoxyphenyl)-4,11-dihydro-1H,3H-benzo[4,5]imidazo[1,2-a]furo[3,4-d]pyrimidin-1-one], the IC50 is 0.104 µM in experiment [1] (Homo sapiens, MCF7); 0.096 µM in experiment [2] (Homo sapiens); 0.12 µM in experiment [3] (Homo sapiens, A549).

Take `COc1cc(C2C3=C(COC3=O)Nc3nc4ccccc4n32)ccc1O` (stereo not drawn) [Example 6, 11-(4-hydroxy-3-methoxyphenyl)-4,11-dihydro-1H,3H-benzo[4,5]imidazo[1,2-a]furo[3,4-d]pyrimidin-1-one]: the IC50 stood at 0.105 µM in experiment [1] (Homo sapiens, MCF7); 0.133 µM in experiment [2] (Homo sapiens); 0.095 µM in experiment [3] (Homo sapiens, A549).

In the case of `CC(=O)Nc1ccc(C2C3=C(COC3=O)Nc3nc4ccccc4n32)cc1` (stereo not drawn) [Example 10, N-(4-(1-oxo-4,11-dihydro-1H,3H-benzo[4,5]imidazo[1,2-a]furo[3,4-d]pyrimidin-11-yl)phenyl)acetamide], the IC50 was determined as 0.374 µM in experiment [1] (Homo sapiens, MCF7); 0.281 µM in experiment [2] (Homo sapiens); 0.211 µM in experiment [3] (Homo sapiens, A549).

Regarding `COc1ccc(C2C3=C(COC3=O)Nc3nc4ccccc4n32)cc1` (stereo not drawn) [Example 1, 11-(4-methoxyphenyl)-4,11-dihydro-1H,3H-benzo[4,5]imidazo[1,2-a]furo[3,4-d]pyrimidin-1-one], the IC50 in experiment [1] (Homo sapiens, MCF7) stood at 0.126 µM; in experiment [2] (Homo sapiens) it was 0.082 µM; in experiment [3] (Homo sapiens, A549), 0.092 µM.

Consider `COc1cc(C2C3=C(CSC3=O)Nc3nc4ccccc4n32)cc(OC)c1OC` (stereo not drawn) [Example 12, 11-(3,4,5-trimethoxyphenyl)-4,11-dihydro-1H,3H-benzo[4,5]imidazo[1,2-a]thieno[3,4-d]pyrimidin-1-one], for which the IC50 in experiment [1] (Homo sapiens, MCF7) is 0.111 µM; in experiment [2] (Homo sapiens) it was 0.085 µM; in experiment [3] (Homo sapiens, A549), 0.075 µM.

As to `COc1cc([C@@H]2c3cc4c(cc3[C@@H](O[C@@H]3O[C@@H]5CO[C@@H](C)O[C@H]5[C@H](O)[C@H]3O)[C@H]3COC(=O)[C@H]23)OCO4)cc(OC)c1O` [Etoposide, reference compound], the IC50 in experiment [1] was 32.8 µM; in experiment [2] it was 0.31 µM; in experiment [3], 11.9 µM.

For the compound `O=C1OCC2=C1C(c1ccc(Br)cc1)n1c(nc3ccccc31)N2` (stereo not drawn) [Example 15, 11-(4-bromophenyl)-4,11-dihydro-1H,3H-benzo[4,5]imidazo[1,2-a]furo[3,4-d]pyrimidin-1-one], the IC50 in experiment [1] (Homo sapiens, MCF7) was found to be 0.081 µM; in experiment [2] (Homo sapiens), 0.092 µM; in experiment [3] (Homo sapiens, A549), 0.105 µM.

As for `Cc1ccc(C2C3=C(COC3=O)Nc3nc4ccccc4n32)cc1` (stereo not drawn) [Example 7, 11-(p-tolyl)-4,11-dihydro-1H,3H-benzo[4,5]imidazo[1,2-a]furo[3,4-d]pyrimidin-1-one], the IC50 in experiment [1] (Homo sapiens, MCF7) stood at 0.069 µM; in experiment [2] (Homo sapiens), 0.072 µM; in experiment [3] (Homo sapiens, A549) it was 0.067 µM.

Take `Nc1ccc(C2C3=C(COC3=O)Nc3nc4ccccc4n32)cc1` (stereo not drawn) [Example 9, 11-(4-aminophenyl)-4,11-dihydro-1H,3H-benzo[4,5]imidazo[1,2-a]furo[3,4-d]pyrimidin-1-one]: the IC50 in experiment [1] (Homo sapiens, MCF7) was found to be 0.162 µM; in experiment [2] (Homo sapiens) it was 0.143 µM; in experiment [3] (Homo sapiens, A549), 0.123 µM.

As for `O=C1OCC2=C1C(c1ccc3c(c1)OCO3)n1c(nc3ccccc31)N2` (stereo not drawn) [Example 4, 11-(benzo[d][1,3]dioxol-5-yl)-4,11-dihydro-1H,3H-benzo[4,5]imidazo[1,2-a]furo[3,4-d]pyrimidin-1-one], the IC50 was 0.097 µM in experiment [1] (Homo sapiens, MCF7); 0.084 µM in experiment [2] (Homo sapiens); 0.104 µM in experiment [3] (Homo sapiens, A549).

As to `COc1cc(C2C3=C(CNC3=O)Nc3nc4ccccc4n32)cc(OC)c1OC` (stereo not drawn) [Example 11, 11-(3,4,5-trimethoxyphenyl)-2,3,4,11-tetrahydro-1H-benzo[4,5]imidazo[1,2-a]pyrrolo[3,4-d]pyrimidin-1-one], the IC50 came to 0.125 µM in experiment [1] (Homo sapiens, MCF7); 0.104 µM in experiment [2] (Homo sapiens); 0.086 µM in experiment [3] (Homo sapiens, A549).
